Laboratory results as given in patent publication US9895344B2, “Treating various disorders with 7,8-dihydroxyflavone and derivatives thereof” (EMORY UNIVERSITY, priority 2008, dated 2018).

Columns and labels:
TrkB = TrkB (Rattus norvegicus, UniProt Q63604); assay: Immunofluorescent staining of hippocampal neurons with anti-phospho TrkB antibody; format: cell-based; set-up: endogenous in cells; host or cells: primary hippocampal neurons; conditions: 1 μM, 30 minutes, FIG. 8
Protocol: Primary hippocampal neurons were seeded on poly-L lysine coated coverslips in a 12-well plate. After 7 days in vitro, the neurons were treated with 100 ng/ml BDNF or variety of flavone compounds (1 μM) for 30 minutes, and then washed with PBS. Cells were fixed with 3% formaldehyde in PBS at room temperature for 10 minutes. The cells were then permeabilized and blocked by 0.4% Triton X-100 and 2% FBS in PBS at room temperature for 15 minutes, washed with PBS three times and treated with anti-MAP2 (1:200) and anti-phospho-TrkB antibodies (1:500). After staining with FITC- or Rhodamine-conjugated secondary antibody, the coverslips were mounted on slides. Fluorescent images were taken by OLYMPUS IX71 fluorescence microscope (Olympus; Center Valley, Pa.).
BDNF binding to TrkB induces its autophosphorylation and, subsequently, activation of downstream kinase pathways including MAPK and PI3/Akt. To explore whether 7,8-dihydroxyflavone triggers TrkB activation, immunofluorescent staining on hippocampal neurons with anti-phospho TrkB antibody was conducted.

Erk = assay: Western analysis of Erk phosphorylation in hippocampal neurons; format: cell-based
Protocol: To further examine whether 7,8-dihydroxyflavone can stimulate TrkB-mediated downstream signaling cascades, Western analysis was performed.
To probe the time course of 7,8-dihydroxyflavone triggered TrkB activation, hippocampal neurons were treated with 7,8-dihydroxyflavone at 500 nM and phosphorylation of Erk and Akt was determined over time by Western analysis. […] Stimulation of Erk and Akt by 7,8-dihydroxyflavone also occurred in a dose dependent manner.

TrkA = target: T1, TrkA (Homo sapiens, UniProt P04629); assay: Tyrosine phosphorylation of Trk receptors in transfected HEK293 cells: TrkA; format: cell-based; conditions: FIG. 15
T1 construct: expressed in transfected cells; host or cells: HEK293
From the text: To determine if 7,8-dihydroxyflavone promoted tyrosine phosphorylation of the other Trk receptors, HEK293 cells were transfected with various Trk receptors, followed by treatment with 7,8-dihydroxyflavone.

[1] = system: ECD and ICD of TrkA receptor; assay: In vitro binding assay: TrkA ECD and ICD
[2] = system: progenitor proliferation in hippocampus; assay: Neurogenesis analysis in hippocampus (BrdU); format: in vivo, C57BL/6J mice; conditions: 5 mg/kg daily for 21 days, compared to vehicle control, FIGS. 32 and 33
Protocol: Adult male mice (2-3 months old) were orally injected with saline, 4′-DMA-7,8-DHF and 7,8-DHF (5 mg/kg) for 21 days. Then BrdU (50 mg/kg) was i.p. injected. In 2 hours, the mice were perfused with 4% paraformaldehyde. Immunohistochemical staining was performed on formalin-fixed paraffin-embedded sections. Sections from brain were cut, deparaffinized in xylene and rehydrated in graded alcohols. The slides were boiled in 10 mM citric acid (pH 6.0) for 10 minutes followed by an incubation in 2 N HCl for 10 minutes in room temperature. The slides were then permeabilized and blocked with 1% BSA in 0.2% PBST. The incorporated BrdU were stained using anti-BrdU-FITC (Abcam, Inc; Cambridge, Mass.) at 4° C. for 16 hours. After three washes in PBS, the cells were stained with DAPI for another 10 minutes at room temperature. The slides were mounted with AquaMount (Lerner Laboratories; Pittsburgh, Pa.) containing 0.01% 1,4-diazobicyclo(2,2,2)octane and examined under a fluorescence microscope.
To test whether increasing TrkB activation by 4′-dimethylamino-7,8-dihydroxyflavone would elevate neurogenesis, adult male C57BL/6J mice were injected daily for 21 days with either vehicle, 7,8-DHF, or 4′-DMA-7,8-DHF (5 mg/kg). At the end of treatment (day 21), the animals were injected with BrdU (50 mg/kg, i.p.) to label the dividing cells and were sacrificed 2 hours later. […]

[3] = target: T2, TrkB intracellular domain (ICD) (Rattus norvegicus, UniProt Q63604); assay: In vitro binding assay with [3H]7,8-dihydroxyflavone: TrkB ICD; conditions: gradual increments of [3H]-7,8-dihydroxyflavone
T2 construct: purified TrkB extracellular domain (ECD) and intracellular domain (ICD) recombinant proteins
Protocol: To determine whether 7,8-dihydroxyflavone physically and directly binds the TrkB receptor, in vitro binding assays were conducted with purified TrkB extracellular domain (ECD) and intracellular domain (ICD) recombinant proteins. Purified TrkB ECD and ICD (10 μg of each) were incubated with different concentrations of ^3H-7,8-dihydroxyflavone in 1 ml of binding buffer (0.05M Na/K phosphate buffer, pH 7.1, 200 mM NaCl) at 4° C. for 10 minutes. After the incubation, the reaction mixture was loaded on filter paper. The mixture was washed three times with Tris buffer (100 mM Tris, pH 7.1), and the dried filter paper was put into a small vial and subjected to liquid scintillation counter analysis. […] The value of the dissociate constant and the number of sites were obtained from Scatchard plots using the equation r/[L]free=n/Kd−r/Kd, where r is the ratio of the concentration of bound ligand to the total protein concentration and n is the number of binding sites.

GST-TrkB ECD = GST-TrkB ECD (Rattus norvegicus, UniProt Q63604); assay: In vitro binding assay with immobilized GST-TrkB ECD on glutathione beads, UV-spectrometry of eluate; conditions: 500 nM, 4° C., 30 minutes, FIG. 17
Protocol: To further explore the association of 7,8-dihydroxyflavone and the TrkB receptor, an in vitro binding assay was performed. Increasing volumes of GST-TrkB ECD and GST-TrkB ICD were bound to glutathione beads to a total of 250 uL, and 500 nM 7,8-dihydroxyflavone in 250 μl (20% DMSO/80% PBS) was incubated with the beads in the column at 4° C. for 30 minutes. After the incubation, the elute fractions were collected and the concentration of eluted 7,8-dihydroxyflavone was analyzed by UV-spectrometry at a wavelength of 410 nm.

[4] = system: KA-induced caspase-3 activation; assay: KA-induced neuronal cell death in TrkB F616A mice, oral TrkB agonists; format: in vivo, TrkB F616A knock-in mice
Protocol: TrkB F616A knockin mice (2-3 months old) were fed 1NMPP1 (25 μM) in drinking water one day before pharmacological reagent treatment. The next day, the mice were orally injected with 7,8-DHF or 4′-DMA-7,8-DHF (5 mg/kg) 4 hours before kainic acid (20 mg/kg). The control mice were injected with saline, 1NMPP1, kainic acid alone or administrated 7,8-DHF or 4′-DMA-7,8-DHF 4 hours before kainic acid. In 4 days, the mice were sacrificed and brains were homogenized and ultra-centrifuged. The supernatant (40 μg) was employed for SDS-PAGE and immunoblotting analysis with indicated antibodies, respectively.
To explore whether the neuroprotective effect of these small molecules is dependent on TrkB activation in vivo, TrkB F616A knock-in mice were used.

T2 sequence (Q63604 454-821 limits assumed): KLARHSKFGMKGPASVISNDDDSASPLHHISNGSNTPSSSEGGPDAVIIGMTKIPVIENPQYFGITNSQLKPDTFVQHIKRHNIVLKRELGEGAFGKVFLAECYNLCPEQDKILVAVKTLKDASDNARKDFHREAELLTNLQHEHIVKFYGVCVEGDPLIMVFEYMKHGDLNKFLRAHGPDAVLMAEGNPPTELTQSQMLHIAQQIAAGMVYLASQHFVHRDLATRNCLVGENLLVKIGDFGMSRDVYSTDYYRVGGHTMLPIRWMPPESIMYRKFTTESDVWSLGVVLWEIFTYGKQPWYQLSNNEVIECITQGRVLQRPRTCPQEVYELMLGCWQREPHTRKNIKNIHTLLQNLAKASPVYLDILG
Sequence of GST-TrkB ECD (Q63604 32-429 limits assumed): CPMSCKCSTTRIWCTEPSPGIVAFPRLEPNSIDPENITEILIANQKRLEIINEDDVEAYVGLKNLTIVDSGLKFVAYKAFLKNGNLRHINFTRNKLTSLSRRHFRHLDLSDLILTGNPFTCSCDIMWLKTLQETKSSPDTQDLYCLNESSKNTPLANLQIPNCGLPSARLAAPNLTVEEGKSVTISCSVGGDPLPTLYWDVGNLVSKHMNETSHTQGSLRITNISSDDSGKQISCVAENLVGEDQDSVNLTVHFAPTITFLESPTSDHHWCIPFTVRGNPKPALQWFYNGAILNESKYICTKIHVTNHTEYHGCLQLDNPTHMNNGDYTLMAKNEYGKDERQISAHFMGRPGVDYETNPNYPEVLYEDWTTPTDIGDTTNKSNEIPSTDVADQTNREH
T1 sequence (P04629 33-796, species assumed): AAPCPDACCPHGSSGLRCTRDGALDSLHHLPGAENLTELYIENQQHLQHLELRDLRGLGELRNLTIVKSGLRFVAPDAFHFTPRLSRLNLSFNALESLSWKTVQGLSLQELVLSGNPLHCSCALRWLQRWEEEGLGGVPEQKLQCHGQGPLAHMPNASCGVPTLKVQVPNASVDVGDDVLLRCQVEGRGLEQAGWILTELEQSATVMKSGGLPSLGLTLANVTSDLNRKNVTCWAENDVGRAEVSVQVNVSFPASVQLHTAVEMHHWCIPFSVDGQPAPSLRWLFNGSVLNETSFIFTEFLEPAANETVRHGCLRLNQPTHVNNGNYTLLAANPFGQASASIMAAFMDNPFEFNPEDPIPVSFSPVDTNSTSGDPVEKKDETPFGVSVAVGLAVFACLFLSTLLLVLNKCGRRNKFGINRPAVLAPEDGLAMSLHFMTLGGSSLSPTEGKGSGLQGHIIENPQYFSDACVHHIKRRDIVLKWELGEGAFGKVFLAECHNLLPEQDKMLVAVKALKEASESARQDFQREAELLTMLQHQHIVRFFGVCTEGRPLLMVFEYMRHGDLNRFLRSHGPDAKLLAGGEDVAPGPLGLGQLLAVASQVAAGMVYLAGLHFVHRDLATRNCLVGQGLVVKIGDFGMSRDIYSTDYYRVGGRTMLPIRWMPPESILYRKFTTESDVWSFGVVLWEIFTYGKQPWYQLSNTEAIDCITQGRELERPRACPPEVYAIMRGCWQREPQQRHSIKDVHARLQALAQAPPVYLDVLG
Sequence of TrkB (Q63604 32-821): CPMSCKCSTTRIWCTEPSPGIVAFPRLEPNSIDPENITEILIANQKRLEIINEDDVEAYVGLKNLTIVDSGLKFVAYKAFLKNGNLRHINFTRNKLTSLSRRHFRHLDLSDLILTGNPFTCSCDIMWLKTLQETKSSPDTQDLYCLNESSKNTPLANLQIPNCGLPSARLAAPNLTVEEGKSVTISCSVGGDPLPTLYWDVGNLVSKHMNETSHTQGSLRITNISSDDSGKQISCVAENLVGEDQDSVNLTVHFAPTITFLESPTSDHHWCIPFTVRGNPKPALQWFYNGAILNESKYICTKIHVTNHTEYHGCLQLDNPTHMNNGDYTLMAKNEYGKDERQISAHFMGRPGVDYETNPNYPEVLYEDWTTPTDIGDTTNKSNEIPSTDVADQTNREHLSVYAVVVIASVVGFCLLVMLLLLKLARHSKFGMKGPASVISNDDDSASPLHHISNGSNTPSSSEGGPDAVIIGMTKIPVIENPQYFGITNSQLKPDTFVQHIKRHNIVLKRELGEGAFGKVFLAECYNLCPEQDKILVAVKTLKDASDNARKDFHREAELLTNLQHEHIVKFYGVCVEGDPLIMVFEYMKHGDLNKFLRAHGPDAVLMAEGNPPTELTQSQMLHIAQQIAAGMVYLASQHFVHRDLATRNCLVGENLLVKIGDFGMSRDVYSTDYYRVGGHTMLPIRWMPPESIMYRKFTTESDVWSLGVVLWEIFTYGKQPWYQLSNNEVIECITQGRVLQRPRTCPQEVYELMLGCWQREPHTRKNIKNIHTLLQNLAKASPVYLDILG

Structure (SMILES): O=c1cc(-c2ccccc2)oc2c(O)c(O)ccc12 [7,8-dihydroxyflavone]
- TrkB tyrosine phosphorylation (immunofluorescence) (TrkB): provoked TrkB tyrosine phosphorylation similar to BDNF
- time at which Erk phosphorylation was observed (Erk; 500 nM): 5 min
- time by which Erk phosphorylation faded (Erk; 500 nM): 180 min
- Erk activation (Western) (Erk; FIG. 9): activated
- concentration at which Erk phosphorylation was observed (Erk; treatment for 30 minutes): 250 nM
- tyrosine phosphorylation of TrkA receptor (TrkA): not
- binding to TrkA ECD or ICD [1]: Neither the ECD nor ICD of TrkA receptor was capable of binding
- neurogenesis (BrdU) [2]: increased neurogenesis
- binding to TrkB ICD [3]: not ICD
- concentration of eluted compound as GST-TrkB ECD volumes increased (GST-TrkB ECD): decreased
- KA-caused caspase-3 activation ([4]; 5 mg/kg orally 4 hours before kainic acid (20 mg/kg), FIG. 31): markedly diminished
- protective effect after 1NMPP1 pretreatment ([4]; 1NMPP1 (25 μM) in drinking water, FIG. 31 top): abolished
- TrkB phosphorylation after 1NMPP1 pretreatment ([4]; FIG. 31, 2nd panel): notably blocked
